± gives the expanded uncertainty stated by the source.
Assay: xn = mol fraction of the nth substance listed
Conditions: Liquid, Pycnometric method

C1COCCO1 [1,4-dioxane] + c1ccccc1
mass density (288.15 K, x1 = 0.0713): 895.16 ± 0.81 kg/m3
mass density (288.15 K, x1 = 0.1403): 905.71 ± 0.82 kg/m3
mass density (288.15 K, x1 = 0.2123): 916.74 ± 0.83 kg/m3
mass density (288.15 K, x1 = 0.2809): 927.28 ± 0.83 kg/m3
mass density (288.15 K, x1 = 0.3528): 938.34 ± 0.84 kg/m3
mass density (288.15 K, x1 = 0.4195): 948.63 ± 0.85 kg/m3
mass density (288.15 K, x1 = 0.5037): 961.65 ± 0.85 kg/m3
mass density (288.15 K, x1 = 0.58): 973.48 ± 0.86 kg/m3
mass density (288.15 K, x1 = 0.6504): 984.43 ± 0.86 kg/m3
mass density (288.15 K, x1 = 0.7197): 995.23 ± 0.86 kg/m3
mass density (288.15 K, x1 = 0.7822): 1005 ± 0.87 kg/m3
mass density (288.15 K, x1 = 0.8561): 1016.58 ± 0.87 kg/m3
mass density (288.15 K, x1 = 0.9287): 1027.99 ± 0.87 kg/m3
mass density (288.15 K, x1 = 1): 1039.23 ± 0.87 kg/m3
mass density (293.15 K, x1 = 0.0713): 889.77 ± 0.81 kg/m3
mass density (293.15 K, x1 = 0.1403): 900.28 ± 0.81 kg/m3
mass density (293.15 K, x1 = 0.2123): 911.28 ± 0.82 kg/m3
mass density (293.15 K, x1 = 0.2809): 921.79 ± 0.83 kg/m3
mass density (293.15 K, x1 = 0.3528): 932.82 ± 0.83 kg/m3
mass density (293.15 K, x1 = 0.4195): 943.09 ± 0.84 kg/m3
mass density (293.15 K, x1 = 0.5037): 956.08 ± 0.85 kg/m3
mass density (293.15 K, x1 = 0.58): 967.89 ± 0.85 kg/m3
mass density (293.15 K, x1 = 0.6504): 978.82 ± 0.85 kg/m3
mass density (293.15 K, x1 = 0.7197): 989.61 ± 0.86 kg/m3
mass density (293.15 K, x1 = 0.7822): 999.37 ± 0.86 kg/m3
mass density (293.15 K, x1 = 0.8561): 1010.94 ± 0.86 kg/m3
mass density (293.15 K, x1 = 0.9287): 1022.35 ± 0.86 kg/m3
mass density (293.15 K, x1 = 1): 1033.59 ± 0.87 kg/m3
mass density (298.15 K, x1 = 0.0713): 884.38 ± 0.81 kg/m3
mass density (298.15 K, x1 = 0.1403): 894.85 ± 0.82 kg/m3
mass density (298.15 K, x1 = 0.2123): 905.82 ± 0.82 kg/m3
mass density (298.15 K, x1 = 0.2809): 916.3 ± 0.83 kg/m3
mass density (298.15 K, x1 = 0.3528): 927.31 ± 0.84 kg/m3
mass density (298.15 K, x1 = 0.4195): 937.55 ± 0.84 kg/m3
mass density (298.15 K, x1 = 0.5037): 950.51 ± 0.85 kg/m3
mass density (298.15 K, x1 = 0.58): 962.3 ± 0.85 kg/m3
mass density (298.15 K, x1 = 0.6504): 973.21 ± 0.86 kg/m3
mass density (298.15 K, x1 = 0.7197): 983.99 ± 0.86 kg/m3
mass density (298.15 K, x1 = 0.7822): 993.74 ± 0.86 kg/m3
mass density (298.15 K, x1 = 0.8561): 1005.3 ± 0.87 kg/m3
mass density (298.15 K, x1 = 0.9287): 1016.71 ± 0.87 kg/m3
mass density (298.15 K, x1 = 1): 1027.95 ± 0.87 kg/m3
mass density (303.15 K, x1 = 0.0713): 878.99 ± 0.82 kg/m3
mass density (303.15 K, x1 = 0.1403): 889.42 ± 0.82 kg/m3
mass density (303.15 K, x1 = 0.2123): 900.36 ± 0.83 kg/m3
mass density (303.15 K, x1 = 0.2809): 910.81 ± 0.84 kg/m3
mass density (303.15 K, x1 = 0.3528): 921.8 ± 0.84 kg/m3
mass density (303.15 K, x1 = 0.4195): 932.01 ± 0.85 kg/m3
mass density (303.15 K, x1 = 0.5037): 944.94 ± 0.85 kg/m3
mass density (303.15 K, x1 = 0.58): 956.71 ± 0.86 kg/m3
mass density (303.15 K, x1 = 0.6504): 967.6 ± 0.86 kg/m3
mass density (303.15 K, x1 = 0.7197): 978.37 ± 0.87 kg/m3
mass density (303.15 K, x1 = 0.7822): 988.11 ± 0.87 kg/m3
mass density (303.15 K, x1 = 0.8561): 999.66 ± 0.87 kg/m3
mass density (303.15 K, x1 = 0.9287): 1011.07 ± 0.87 kg/m3
mass density (303.15 K, x1 = 1): 1022.32 ± 0.88 kg/m3
mass density (308.15 K, x1 = 0.0713): 873.6 ± 0.82 kg/m3
mass density (308.15 K, x1 = 0.1403): 883.99 ± 0.83 kg/m3
mass density (308.15 K, x1 = 0.2123): 894.9 ± 0.83 kg/m3
mass density (308.15 K, x1 = 0.2809): 905.32 ± 0.84 kg/m3
mass density (308.15 K, x1 = 0.3528): 916.28 ± 0.85 kg/m3
mass density (308.15 K, x1 = 0.4195): 926.47 ± 0.85 kg/m3
mass density (308.15 K, x1 = 0.5037): 939.38 ± 0.86 kg/m3
mass density (308.15 K, x1 = 0.58): 951.12 ± 0.86 kg/m3
mass density (308.15 K, x1 = 0.6504): 962 ± 0.87 kg/m3
mass density (308.15 K, x1 = 0.7197): 972.75 ± 0.87 kg/m3
mass density (308.15 K, x1 = 0.7822): 982.48 ± 0.87 kg/m3
mass density (308.15 K, x1 = 0.8561): 994.02 ± 0.88 kg/m3
mass density (308.15 K, x1 = 0.9287): 1005.43 ± 0.88 kg/m3
mass density (308.15 K, x1 = 1): 1016.68 ± 0.88 kg/m3
mass density (313.15 K, x1 = 0.0713): 868.22 ± 0.82 kg/m3
mass density (313.15 K, x1 = 0.1403): 878.58 ± 0.83 kg/m3
mass density (313.15 K, x1 = 0.2123): 889.45 ± 0.84 kg/m3
mass density (313.15 K, x1 = 0.2809): 899.84 ± 0.84 kg/m3
mass density (313.15 K, x1 = 0.3528): 910.77 ± 0.85 kg/m3
mass density (313.15 K, x1 = 0.4195): 920.94 ± 0.86 kg/m3
mass density (313.15 K, x1 = 0.5037): 933.82 ± 0.86 kg/m3
mass density (313.15 K, x1 = 0.58): 945.54 ± 0.87 kg/m3
mass density (313.15 K, x1 = 0.6504): 956.4 ± 0.87 kg/m3
mass density (313.15 K, x1 = 0.7197): 967.13 ± 0.87 kg/m3
mass density (313.15 K, x1 = 0.7822): 976.85 ± 0.88 kg/m3
mass density (313.15 K, x1 = 0.8561): 988.39 ± 0.88 kg/m3
mass density (313.15 K, x1 = 0.9287): 999.79 ± 0.88 kg/m3
mass density (313.15 K, x1 = 1): 1011.05 ± 0.89 kg/m3
mass density (318.15 K, x1 = 0.0713): 862.84 ± 0.83 kg/m3
mass density (318.15 K, x1 = 0.1403): 873.17 ± 0.83 kg/m3
mass density (318.15 K, x1 = 0.2123): 884 ± 0.84 kg/m3
mass density (318.15 K, x1 = 0.2809): 894.36 ± 0.85 kg/m3
mass density (318.15 K, x1 = 0.3528): 905.26 ± 0.85 kg/m3
mass density (318.15 K, x1 = 0.4195): 915.41 ± 0.86 kg/m3
mass density (318.15 K, x1 = 0.5037): 928.26 ± 0.87 kg/m3
mass density (318.15 K, x1 = 0.58): 939.96 ± 0.87 kg/m3
mass density (318.15 K, x1 = 0.6504): 950.8 ± 0.87 kg/m3
mass density (318.15 K, x1 = 0.7197): 961.52 ± 0.88 kg/m3
mass density (318.15 K, x1 = 0.7822): 971.23 ± 0.88 kg/m3
mass density (318.15 K, x1 = 0.8561): 982.76 ± 0.88 kg/m3
mass density (318.15 K, x1 = 0.9287): 994.15 ± 0.89 kg/m3
mass density (318.15 K, x1 = 1): 1005.42 ± 0.89 kg/m3

From the NIST ThermoML archive (doi:10.1021/je800579j)
